Values of other authors as cited in patent US20150045610A1, “METHOD OF MODIFYING SPERMATOGENESIS, SPERMIOGENESIS AND/OR FERTILITY IN MAMMALS” (Monell Chemical Senses Center, priority 2012, published 2015).

Molecular target: T1, human T1R3 receptor (Homo sapiens, UniProt Q7RTX0)
T1 construct: expressed in transfected cells
T1 sequence (Q7RTX0 21-852): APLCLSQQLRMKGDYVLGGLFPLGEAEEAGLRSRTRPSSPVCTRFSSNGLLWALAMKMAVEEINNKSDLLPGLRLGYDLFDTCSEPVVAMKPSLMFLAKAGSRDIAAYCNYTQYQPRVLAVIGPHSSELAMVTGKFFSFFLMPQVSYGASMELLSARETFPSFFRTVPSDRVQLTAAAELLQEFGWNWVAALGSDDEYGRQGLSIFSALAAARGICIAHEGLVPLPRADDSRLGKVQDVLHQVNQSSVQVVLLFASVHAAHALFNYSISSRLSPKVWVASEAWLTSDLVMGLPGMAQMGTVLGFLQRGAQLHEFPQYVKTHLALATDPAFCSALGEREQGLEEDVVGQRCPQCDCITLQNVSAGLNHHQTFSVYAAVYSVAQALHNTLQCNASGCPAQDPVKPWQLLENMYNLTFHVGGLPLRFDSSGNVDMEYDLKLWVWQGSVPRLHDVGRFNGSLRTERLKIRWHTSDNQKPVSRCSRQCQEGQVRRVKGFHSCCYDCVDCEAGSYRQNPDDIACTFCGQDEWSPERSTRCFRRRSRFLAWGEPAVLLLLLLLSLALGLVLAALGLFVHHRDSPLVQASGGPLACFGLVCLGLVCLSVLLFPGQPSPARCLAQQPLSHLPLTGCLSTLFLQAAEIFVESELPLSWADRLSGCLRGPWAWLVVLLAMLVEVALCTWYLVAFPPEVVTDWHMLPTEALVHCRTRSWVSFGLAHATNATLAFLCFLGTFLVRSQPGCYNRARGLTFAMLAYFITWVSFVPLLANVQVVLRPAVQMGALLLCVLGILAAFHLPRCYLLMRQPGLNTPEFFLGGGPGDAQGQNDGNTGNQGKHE
T1 sequence (Q8TE23 20-839 partner): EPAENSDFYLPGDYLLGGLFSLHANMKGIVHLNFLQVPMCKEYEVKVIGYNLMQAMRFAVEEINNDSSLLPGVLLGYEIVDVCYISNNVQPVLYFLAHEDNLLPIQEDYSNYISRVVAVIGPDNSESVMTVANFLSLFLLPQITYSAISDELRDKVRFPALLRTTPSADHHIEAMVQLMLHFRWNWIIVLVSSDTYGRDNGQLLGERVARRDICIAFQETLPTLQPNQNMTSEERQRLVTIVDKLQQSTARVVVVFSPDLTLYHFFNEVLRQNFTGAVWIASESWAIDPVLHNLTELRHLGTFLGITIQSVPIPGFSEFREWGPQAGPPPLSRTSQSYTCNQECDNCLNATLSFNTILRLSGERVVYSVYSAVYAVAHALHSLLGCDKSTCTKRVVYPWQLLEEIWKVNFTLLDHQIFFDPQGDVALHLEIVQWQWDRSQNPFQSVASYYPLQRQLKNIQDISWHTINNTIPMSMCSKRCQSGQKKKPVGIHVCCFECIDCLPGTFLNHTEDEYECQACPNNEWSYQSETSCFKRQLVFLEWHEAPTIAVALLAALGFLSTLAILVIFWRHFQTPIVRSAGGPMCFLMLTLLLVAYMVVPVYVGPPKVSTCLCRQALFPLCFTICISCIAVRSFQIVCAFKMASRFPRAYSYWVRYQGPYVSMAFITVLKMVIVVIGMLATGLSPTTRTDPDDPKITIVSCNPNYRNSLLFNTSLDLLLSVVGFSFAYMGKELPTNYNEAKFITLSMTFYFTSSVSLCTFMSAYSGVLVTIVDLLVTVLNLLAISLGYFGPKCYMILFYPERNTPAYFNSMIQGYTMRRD
Details: cited from earlier work

## CC(C)(Oc1ccc(Cl)cc1)C(=O)O [clofibric acid]
  T1R3 inhibition compared with PPAR-α activation: comparable to their activation of PPAR-α
